# Measured values taken from ChEMBL document CHEMBL5696442, “Discovery of type II inhibitors of TGFβ-activated kinase 1 (TAK1) and mitogen-activated protein kinase kinase kinase kinase 2 (MAP4K2)” (J Med Chem, 2015).
# Legend:
# [1] = target: TRAF2 and NCK-interacting protein kinase (Homo sapiens) (UniProt Q9UKE5); assay: Inhibition of ZC2 Lys2 labeling site in human A-375 cells at 5 uM by KiNativ Profiling analysis relative to control; format: cell-based
# [2] = target: Mitogen-activated protein kinase kinase kinase 20 (Homo sapiens, UniProt Q9NYL2); assay: Inhibition of ZAK Lys1 labeling site in human A-375 cells at 5 uM by KiNativ Profiling analysis relative to control; format: cell-based
# [3] = system: Mast/stem cell growth factor receptor Kit (Homo sapiens), P10721 [V559D,T670I]; assay: Inhibition of KIT V559D/T670I double mutant (unknown origin) at 10 uM by Ambit Kinomescan binding assay relative to control
# [4] = target: Cyclin-dependent kinase 11B (Homo sapiens) (UniProt P21127); assay: Inhibition of CDK11 Lys2 labeling site in human A-375 cells at 0.5 uM by KiNativ Profiling analysis relative to control; format: cell-based
# [5] = target: Calcium/calmodulin-dependent protein kinase type II subunit gamma (Homo sapiens) (UniProt Q13555); assay: Inhibition of CaMK2g K1 labeling site in human Huh-7 cells at 1 uM by KiNativ Profiling analysis relative to control; format: cell-based
# [6] = target: Cyclin-dependent kinase 2 (Homo sapiens) (UniProt P24941); assay: Inhibition of CDK2 K2 labeling site in human Huh-7 cells at 1 uM by KiNativ Profiling analysis relative to control; format: cell-based
# [7] = target: Serine/threonine-protein kinase SIK1 (Homo sapiens) (UniProt P57059); assay: Inhibition of SIK (unknown origin) at 10 uM by Ambit Kinomescan binding assay relative to control; values are per cent of control
# [8] = system: Proto-oncogene tyrosine-protein kinase receptor Ret (Homo sapiens), P07949 [M918T]; assay: Inhibition of RET M918T mutant (unknown origin) at 10 uM by Ambit Kinomescan binding assay relative to control; values are per cent of control
# [9] = target: Cyclin-dependent kinase 10 (Homo sapiens) (UniProt Q15131); assay: Inhibition of CDK10 Lys2 labeling site in human Huh-7 cell lysate at 1 uM by KiNativ Profiling analysis relative to control; format: subcellular
# [10] = target: DNA-PK/Ku70/Ku85 (Homo sapiens) (UniProt P78527+P12956+P13010); assay: Inhibition of DNAPK ATP labeling site harbouring KGGSWIQEINVAEKNWYPR in human Huh-7 cell lysate at 1 uM by KiNativ Profiling analysis relative to control; format: subcellular
# [11] = target: T1, Eukaryotic translation initiation factor 2-alpha kinase 3 (Homo sapiens) (UniProt Q9NZJ5); assay: Inhibition of PEK Lys2 labeling site in human Huh-7 cell lysate at 1 uM by KiNativ Profiling analysis relative to control; format: subcellular
# T1 sequence (whole entry): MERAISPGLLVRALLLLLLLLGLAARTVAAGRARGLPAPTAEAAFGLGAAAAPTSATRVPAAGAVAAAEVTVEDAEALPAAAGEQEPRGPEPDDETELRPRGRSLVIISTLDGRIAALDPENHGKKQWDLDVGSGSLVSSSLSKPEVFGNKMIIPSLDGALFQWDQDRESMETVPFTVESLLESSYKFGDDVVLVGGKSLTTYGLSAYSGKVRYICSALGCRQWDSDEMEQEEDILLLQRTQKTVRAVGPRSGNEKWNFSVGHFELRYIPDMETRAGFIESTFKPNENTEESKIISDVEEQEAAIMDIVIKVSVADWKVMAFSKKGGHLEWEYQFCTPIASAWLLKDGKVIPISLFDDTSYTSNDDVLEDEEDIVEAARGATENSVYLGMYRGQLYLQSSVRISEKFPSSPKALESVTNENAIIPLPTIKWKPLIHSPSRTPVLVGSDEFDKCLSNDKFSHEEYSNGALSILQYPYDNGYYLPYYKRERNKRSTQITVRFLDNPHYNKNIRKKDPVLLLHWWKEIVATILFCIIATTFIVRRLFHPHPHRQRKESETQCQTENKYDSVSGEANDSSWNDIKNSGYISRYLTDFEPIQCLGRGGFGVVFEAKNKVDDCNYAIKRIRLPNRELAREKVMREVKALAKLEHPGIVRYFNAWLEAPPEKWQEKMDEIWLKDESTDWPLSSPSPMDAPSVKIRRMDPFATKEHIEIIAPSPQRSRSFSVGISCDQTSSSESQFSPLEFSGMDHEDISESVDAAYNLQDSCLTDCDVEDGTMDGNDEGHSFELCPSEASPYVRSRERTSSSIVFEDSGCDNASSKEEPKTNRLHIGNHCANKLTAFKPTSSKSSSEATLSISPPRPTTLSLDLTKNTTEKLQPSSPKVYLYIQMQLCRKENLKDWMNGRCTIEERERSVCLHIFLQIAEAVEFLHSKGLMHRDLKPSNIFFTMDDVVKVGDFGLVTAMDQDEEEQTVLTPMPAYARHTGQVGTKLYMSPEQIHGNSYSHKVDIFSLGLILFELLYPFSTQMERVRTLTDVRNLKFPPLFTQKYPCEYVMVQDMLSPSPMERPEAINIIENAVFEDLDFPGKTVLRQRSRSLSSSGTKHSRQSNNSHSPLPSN
# [12] = system: Tyrosine-protein kinase ABL1 (Homo sapiens), P00519 [T315I]; assay: Inhibition of nonphosphorylated ABL1 T315I mutant (unknown origin) at 1 uM by Ambit Kinomescan binding assay relative to control
# [13] = target: T2, Interleukin-1 receptor-associated kinase 4 (Homo sapiens) (UniProt Q9NWZ3); assay: Inhibition of IRAK4 Lys2 labeling site in human A-375 cells at 0.5 uM by KiNativ Profiling analysis relative to control; format: cell-based
# T2 sequence (whole entry): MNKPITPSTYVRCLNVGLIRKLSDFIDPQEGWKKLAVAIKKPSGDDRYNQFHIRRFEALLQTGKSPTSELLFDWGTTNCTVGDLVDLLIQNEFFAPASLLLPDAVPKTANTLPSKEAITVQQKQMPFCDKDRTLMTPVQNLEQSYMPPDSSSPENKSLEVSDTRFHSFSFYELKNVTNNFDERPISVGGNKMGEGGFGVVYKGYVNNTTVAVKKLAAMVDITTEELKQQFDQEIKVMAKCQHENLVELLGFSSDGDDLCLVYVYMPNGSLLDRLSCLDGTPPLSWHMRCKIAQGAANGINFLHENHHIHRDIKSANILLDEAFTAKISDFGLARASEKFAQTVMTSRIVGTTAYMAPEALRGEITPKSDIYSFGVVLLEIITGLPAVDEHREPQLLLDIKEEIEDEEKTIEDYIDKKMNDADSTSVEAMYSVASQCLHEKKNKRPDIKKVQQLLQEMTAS
# [14] = target: Receptor tyrosine-protein kinase erbB-3 (Homo sapiens) (UniProt P21860); assay: Inhibition of HER3/ErbB3 Lys1 labeling site in human A-375 cells at 0.05 uM by KiNativ Profiling analysis relative to control; format: cell-based
# Chain of Receptor tyrosine-protein kinase erbB-3 (Homo sapiens) (P21860 whole entry): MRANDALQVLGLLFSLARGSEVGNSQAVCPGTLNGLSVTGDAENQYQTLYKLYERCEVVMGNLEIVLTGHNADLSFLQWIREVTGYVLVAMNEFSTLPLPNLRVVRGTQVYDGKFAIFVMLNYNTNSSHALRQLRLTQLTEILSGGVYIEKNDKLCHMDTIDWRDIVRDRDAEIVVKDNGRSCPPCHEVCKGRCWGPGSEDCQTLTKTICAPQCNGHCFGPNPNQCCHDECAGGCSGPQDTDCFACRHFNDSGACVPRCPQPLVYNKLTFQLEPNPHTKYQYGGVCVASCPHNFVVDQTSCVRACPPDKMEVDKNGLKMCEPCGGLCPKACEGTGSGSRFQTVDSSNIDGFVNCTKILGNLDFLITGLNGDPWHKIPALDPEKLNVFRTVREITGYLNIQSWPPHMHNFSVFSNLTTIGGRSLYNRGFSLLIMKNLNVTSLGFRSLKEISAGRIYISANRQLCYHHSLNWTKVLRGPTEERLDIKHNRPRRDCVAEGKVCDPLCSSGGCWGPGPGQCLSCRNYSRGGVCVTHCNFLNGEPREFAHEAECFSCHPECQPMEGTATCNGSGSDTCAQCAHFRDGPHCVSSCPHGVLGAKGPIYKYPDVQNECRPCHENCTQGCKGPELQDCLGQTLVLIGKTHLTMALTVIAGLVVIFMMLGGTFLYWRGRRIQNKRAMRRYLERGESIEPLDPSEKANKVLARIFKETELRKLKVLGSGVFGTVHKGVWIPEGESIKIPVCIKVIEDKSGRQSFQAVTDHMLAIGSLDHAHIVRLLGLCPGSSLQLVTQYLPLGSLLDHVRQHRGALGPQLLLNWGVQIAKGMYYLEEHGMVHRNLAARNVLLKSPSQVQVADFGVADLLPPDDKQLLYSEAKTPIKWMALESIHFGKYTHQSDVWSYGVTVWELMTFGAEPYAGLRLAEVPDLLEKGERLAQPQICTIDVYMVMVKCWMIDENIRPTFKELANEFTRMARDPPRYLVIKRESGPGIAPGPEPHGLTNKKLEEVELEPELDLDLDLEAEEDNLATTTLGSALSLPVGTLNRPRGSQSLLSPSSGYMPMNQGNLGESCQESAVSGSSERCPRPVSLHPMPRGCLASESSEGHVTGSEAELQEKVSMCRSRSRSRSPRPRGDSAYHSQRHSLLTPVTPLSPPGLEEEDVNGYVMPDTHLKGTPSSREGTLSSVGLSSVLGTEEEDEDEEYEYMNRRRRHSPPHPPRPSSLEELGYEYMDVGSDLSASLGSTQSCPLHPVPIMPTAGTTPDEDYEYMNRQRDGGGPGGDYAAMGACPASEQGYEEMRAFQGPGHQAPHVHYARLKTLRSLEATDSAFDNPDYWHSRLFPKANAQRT
# Chain of Serine/threonine-protein kinase SIK1 (Homo sapiens) (P57059 whole entry): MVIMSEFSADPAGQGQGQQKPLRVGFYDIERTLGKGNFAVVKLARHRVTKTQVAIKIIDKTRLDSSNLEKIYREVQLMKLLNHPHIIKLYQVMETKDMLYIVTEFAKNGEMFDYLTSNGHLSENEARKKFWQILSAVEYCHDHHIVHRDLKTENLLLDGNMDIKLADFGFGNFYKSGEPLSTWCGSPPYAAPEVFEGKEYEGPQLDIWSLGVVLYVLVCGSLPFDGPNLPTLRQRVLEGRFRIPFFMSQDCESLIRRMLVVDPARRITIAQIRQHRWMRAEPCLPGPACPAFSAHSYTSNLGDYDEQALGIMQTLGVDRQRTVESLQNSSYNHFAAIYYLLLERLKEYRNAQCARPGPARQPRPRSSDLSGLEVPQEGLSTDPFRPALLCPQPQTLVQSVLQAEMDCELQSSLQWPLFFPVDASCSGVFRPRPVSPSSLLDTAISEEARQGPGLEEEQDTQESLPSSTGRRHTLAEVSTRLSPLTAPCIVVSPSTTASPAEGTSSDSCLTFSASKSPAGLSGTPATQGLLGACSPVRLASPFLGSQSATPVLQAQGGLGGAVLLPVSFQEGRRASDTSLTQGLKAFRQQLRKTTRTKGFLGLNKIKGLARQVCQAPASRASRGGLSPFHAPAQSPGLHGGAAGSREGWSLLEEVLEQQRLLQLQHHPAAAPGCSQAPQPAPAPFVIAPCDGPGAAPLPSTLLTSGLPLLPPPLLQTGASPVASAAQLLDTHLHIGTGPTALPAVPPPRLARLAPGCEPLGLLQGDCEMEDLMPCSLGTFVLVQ
# Chain of Mitogen-activated protein kinase kinase kinase 20 (Q9NYL2 2-800 limits assumed): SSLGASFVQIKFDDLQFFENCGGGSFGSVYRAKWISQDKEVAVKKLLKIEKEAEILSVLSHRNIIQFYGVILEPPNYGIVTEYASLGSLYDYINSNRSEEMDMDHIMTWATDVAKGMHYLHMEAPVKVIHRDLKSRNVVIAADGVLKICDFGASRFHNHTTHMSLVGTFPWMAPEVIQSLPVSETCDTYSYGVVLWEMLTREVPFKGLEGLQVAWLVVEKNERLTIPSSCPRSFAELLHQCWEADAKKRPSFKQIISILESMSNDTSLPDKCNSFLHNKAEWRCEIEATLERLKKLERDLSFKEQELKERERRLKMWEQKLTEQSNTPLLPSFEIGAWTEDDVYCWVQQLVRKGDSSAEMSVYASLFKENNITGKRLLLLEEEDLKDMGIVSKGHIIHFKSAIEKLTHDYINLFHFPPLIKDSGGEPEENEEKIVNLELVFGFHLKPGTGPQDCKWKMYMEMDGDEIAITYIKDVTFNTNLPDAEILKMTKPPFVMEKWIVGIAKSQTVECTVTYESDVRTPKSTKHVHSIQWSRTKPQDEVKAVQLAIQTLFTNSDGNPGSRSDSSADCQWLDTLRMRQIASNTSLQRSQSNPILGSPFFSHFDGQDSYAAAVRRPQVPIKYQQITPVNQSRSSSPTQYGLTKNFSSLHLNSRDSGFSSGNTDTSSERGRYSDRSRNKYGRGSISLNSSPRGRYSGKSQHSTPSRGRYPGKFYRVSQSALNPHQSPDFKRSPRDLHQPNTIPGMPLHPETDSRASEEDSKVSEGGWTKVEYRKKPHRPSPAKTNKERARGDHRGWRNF
# Chain of Cyclin-dependent kinase 10 (Homo sapiens) (Q15131 whole entry): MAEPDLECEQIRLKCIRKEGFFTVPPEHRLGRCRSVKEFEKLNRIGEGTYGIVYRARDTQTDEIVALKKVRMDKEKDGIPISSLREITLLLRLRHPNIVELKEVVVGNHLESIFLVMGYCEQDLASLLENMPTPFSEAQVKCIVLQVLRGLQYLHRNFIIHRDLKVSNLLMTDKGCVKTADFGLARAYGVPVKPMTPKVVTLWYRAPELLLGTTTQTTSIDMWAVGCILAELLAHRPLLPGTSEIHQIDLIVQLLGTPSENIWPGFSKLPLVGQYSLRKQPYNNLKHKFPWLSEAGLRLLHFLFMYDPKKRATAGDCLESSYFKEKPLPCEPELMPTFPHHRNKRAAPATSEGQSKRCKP
# Chain of Cyclin-dependent kinase 11B (Homo sapiens) (P21127 whole entry): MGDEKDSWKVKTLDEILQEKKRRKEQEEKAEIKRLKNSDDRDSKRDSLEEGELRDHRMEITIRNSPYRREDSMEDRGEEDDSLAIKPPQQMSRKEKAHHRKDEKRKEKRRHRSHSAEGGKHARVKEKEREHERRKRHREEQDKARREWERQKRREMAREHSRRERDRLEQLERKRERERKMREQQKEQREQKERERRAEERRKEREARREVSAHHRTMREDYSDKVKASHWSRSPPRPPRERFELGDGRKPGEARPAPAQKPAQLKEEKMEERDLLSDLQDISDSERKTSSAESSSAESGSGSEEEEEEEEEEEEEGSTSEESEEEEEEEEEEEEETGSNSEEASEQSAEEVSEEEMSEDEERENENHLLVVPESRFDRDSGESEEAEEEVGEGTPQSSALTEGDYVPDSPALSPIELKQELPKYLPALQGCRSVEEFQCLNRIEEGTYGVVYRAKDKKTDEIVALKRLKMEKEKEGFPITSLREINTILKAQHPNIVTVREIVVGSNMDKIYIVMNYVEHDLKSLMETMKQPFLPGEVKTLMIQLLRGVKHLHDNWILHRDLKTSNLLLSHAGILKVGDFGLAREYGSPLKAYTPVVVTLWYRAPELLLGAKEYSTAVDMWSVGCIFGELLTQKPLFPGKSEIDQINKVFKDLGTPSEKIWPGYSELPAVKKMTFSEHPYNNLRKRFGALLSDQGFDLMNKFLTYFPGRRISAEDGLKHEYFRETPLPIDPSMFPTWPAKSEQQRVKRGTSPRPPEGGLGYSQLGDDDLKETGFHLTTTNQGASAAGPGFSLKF
# Chain of Calcium/calmodulin-dependent protein kinase type II subunit gamma (Homo sapiens) (Q13555 whole entry): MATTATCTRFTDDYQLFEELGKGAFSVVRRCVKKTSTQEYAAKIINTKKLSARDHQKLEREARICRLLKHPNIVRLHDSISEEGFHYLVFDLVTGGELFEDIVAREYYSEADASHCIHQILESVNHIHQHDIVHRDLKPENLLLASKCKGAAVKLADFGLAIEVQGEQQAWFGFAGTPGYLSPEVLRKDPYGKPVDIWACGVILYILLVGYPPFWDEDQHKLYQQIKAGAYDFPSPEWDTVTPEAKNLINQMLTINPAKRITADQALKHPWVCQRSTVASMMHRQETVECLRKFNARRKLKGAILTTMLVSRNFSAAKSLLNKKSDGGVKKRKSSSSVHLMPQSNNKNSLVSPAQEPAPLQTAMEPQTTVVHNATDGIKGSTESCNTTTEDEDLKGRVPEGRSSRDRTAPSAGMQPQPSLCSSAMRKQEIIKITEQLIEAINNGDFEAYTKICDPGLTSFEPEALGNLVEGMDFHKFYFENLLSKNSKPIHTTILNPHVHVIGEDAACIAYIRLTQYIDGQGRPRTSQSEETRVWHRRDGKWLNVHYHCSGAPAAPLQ
compound,measurement,setting,value
CCN1CCN(Cc2ccc(NC(=O)c3ccc(C)c(Oc4ccnc5[nH]ccc45)c3)cc2C(F)(F)F)CC1,inhibition,[1],92.7%
same,inhibition,[2],98.1%
same,inhibition,[3],0.05%
same,inhibition,[4],51.2%
same,inhibition,[5],-7.7%
same,inhibition,[6],5%
same,residual activity,[7],5.3%
same,residual activity,[8],0%
CNc1cc(Oc2cc(C(=O)Nc3cc(N4CCN(C)CC4)cc(C(F)(F)F)c3)ccc2C)ncn1,inhibition,[9],2.7%
same,inhibition,[10],15.9%
same,inhibition,[11],-6.7%
CCN1CCN(Cc2ccc(NC(=O)c3ccc(C)c(/C=C/c4cnc5[nH]ccc5c4OC)c3)cc2C(F)(F)F)CC1,inhibition,[12],11%
same,inhibition,[13],10.3%
same,inhibition,[14],21.3%
